Laboratory results taken from ChEMBL document CHEMBL1123341, “Thromboxane A2 synthase inhibitors. 5-(3-Pyridylmethyl)benzofuran-2-carboxylic acids” (J Med Chem, 1986).
Converted amounts (≈) assume the structure as drawn.

Key:
[1] = target: T1, Thromboxane-A synthase (Homo sapiens) (UniProt P24557); assay: In vitro inhibition of TXA2 biosynthesis in human microsomal platelets; format: functional, microsomes; conditions: Microsome
T1 sequence (whole entry): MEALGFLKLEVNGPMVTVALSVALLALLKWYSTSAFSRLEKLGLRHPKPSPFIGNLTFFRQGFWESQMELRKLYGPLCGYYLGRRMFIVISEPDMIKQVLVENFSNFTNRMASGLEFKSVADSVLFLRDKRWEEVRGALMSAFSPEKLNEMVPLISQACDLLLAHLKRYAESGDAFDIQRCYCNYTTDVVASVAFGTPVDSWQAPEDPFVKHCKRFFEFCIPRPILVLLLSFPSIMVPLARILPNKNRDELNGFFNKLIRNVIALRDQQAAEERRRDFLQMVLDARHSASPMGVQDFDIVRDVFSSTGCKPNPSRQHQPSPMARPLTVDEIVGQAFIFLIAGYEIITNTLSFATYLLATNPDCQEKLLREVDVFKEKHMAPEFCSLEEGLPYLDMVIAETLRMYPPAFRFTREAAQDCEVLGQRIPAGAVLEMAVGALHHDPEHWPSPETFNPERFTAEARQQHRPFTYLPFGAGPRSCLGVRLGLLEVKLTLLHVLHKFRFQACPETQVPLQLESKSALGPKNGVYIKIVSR

[2] = target: T1, Thromboxane-A synthase (Homo sapiens); assay: In vitro inhibition of TXA2 biosynthesis in human microsomal platelets relative to Sodium Furegrelate; format: functional, microsomes; conditions: Microsome
[3] = target: T1, Thromboxane-A synthase (Homo sapiens); assay: Compound was tested in vitro for its ability to inhibit TXA2 biosynthesis in human microsomal platelets; format: functional, microsomes; conditions: Microsome
[4] = target: T1, Thromboxane-A synthase (Homo sapiens); assay: Compound was tested for thromboxane synthase activity in microsomal preparations from human platelets(HPM); format: functional
[5] = test system: Thromboxane-A synthase (Canis lupus familiaris); assay: Compound was tested for thromboxane synthase activity in microsomal preparations from dog lung(DLM)
[6] = test system: Thromboxane-A synthase (Cavia porcellus); assay: Compound was tested for thromboxane synthase activity in microsomal preparations from guinea pig lung(GPLM)

Row | ED50 [1] [µg/mL] | Relative potency [2] | SMILES | other results
1 | 0.03 (≈ 0.125 µM) | 0.3 | O=C(O)c1cc2cc(-c3cccnc3)ccc2o1 | –
2 | 0.01 (≈ 0.0395 µM) | – | O=C(O)c1cc2cc(Cc3cccnc3)ccc2o1 | ED50 [4]: 0.01 µg/mL (≈ 0.0395 µM)
3 | 3 (≈ 11.2 µM) | 0.003 | O=C(O)c1cc2ccc(CCc3cccnc3)cc2o1 | –
4 | 0.3 (≈ 1.19 µM) | 0.003 | NC(=O)c1cc2cc(Cc3cccnc3)ccc2o1 | –
5 | 3 (≈ 11.2 µM) | 0.003 | O=C(O)c1cc2cc(CCc3cccnc3)ccc2o1 | –
6 | 0.03 (≈ 0.118 µM) | 0.3 | O=C(O)c1cc2ccc(Cc3cccnc3)cc2o1 | –

The remaining lines, values behind:

Row | SMILES | ED50 [1] [µg/mL] | Relative potency [2] | other results
7 | O=C(O)c1cc2cc(Cc3cnccc3Cl)ccc2o1 | > 10 | < 0.0001 | –
8 | O=C(O)c1cc2cc(Cc3cccnc3)cc(Br)c2o1 | 0.03 (≈ 0.0903 µM) | 0.3 | –
9 | O=C(O)c1cc2cc(Cc3ccc(Cl)nc3)ccc2o1 | – | – | ED50 [3]: > 10 µg/mL; Relative potency [3]: < 0.001
10 | CCCCC[C@H](O)/C=C/[C@H]1C2CC(N=N2)[C@@H]1C/C=C\CCCC(=O)O (some centres not stated) | – | – | ED50 [3]: 0.03 µg/mL (≈ 0.0861 µM); Relative potency [3]: 0.3
11 | O=C(O)c1cc2cc(Cc3ccc[n+]([O-])c3)ccc2o1 | – | – | ED50 [3]: > 10 µg/mL; Relative potency [3]: < 0.001
12 | Cc1c(C(=O)O)oc2ccc(Cc3cccnc3)cc12 | 0.03 (≈ 0.112 µM) | 0.3 | –
13 | C/C(=C\c1ccc(Cc2cccnc2)cc1)C(=O)O | 0.03 (≈ 0.118 µM) | 0.3 | ED50 [4]: 0.03 µg/mL (≈ 0.118 µM); ED50 [5]: 0.003 µg/mL (≈ 0.0118 µM); ED50 [6]: 0.2 µg/mL (≈ 0.79 µM)
14 | COc1cc(Cc2cccnc2)cc2cc(C(=O)O)oc12 | 0.03 (≈ 0.106 µM) | 0.3 | –
15 | O=C(c1cccnc1)c1ccc2oc(C(=O)O)cc2c1 | 3 (≈ 11.2 µM) | 0.003 | –
16 | O=C(O)c1cc2cc(Cc3cccnc3Cl)ccc2o1 | – | – | ED50 [3]: 0.1 µg/mL (≈ 0.348 µM); Relative potency [3]: 0.1
17 | Cc1cc(Cc2cccnc2)cc2cc(C(=O)O)oc12 | 0.03 (≈ 0.112 µM) | 0.3 | –
